Legend:
[1] = Proteolysis assay with trypsin or chymotrypsin, LC-MS; assay type: in vitro ADME; conditions: isolated enzyme several chymotrypsin trypsin, pH 8.1; after 10 minutes with protease (trypsin/chymotrypsin), 37° C.; read-out: intact peptide observed
Procedure: 100 μL of peptide (100 μM) in phosphate buffer (pH 8.1) was mixed and incubated with 40 μL of the protease solution (trypsin—70 μg/mL; chymotrypsin—50 μg/mL) at 37° C. Aliquots of 35 μL were quenched with 55 μL of 1% TFA solution in MeCN and subjected to LC-MS analysis at 10, 25 and 40 minutes respectively. Peptide concentrations at different time points were quantified by integration of the TIC trace relative to the starting peptide sample. Note, that in the case of experiments with unstapled peptide 7, <1% of the intact peptide was observed after 10 minutes.

HEK293T cells = assay: Confocal microscopy cell imaging of FITC-labeled peptide uptake; assay type: cell-based; conditions: 5 μM, 4 hours
Procedure: 293T HEK cells were cultured with DMEM with 10% FBS (v/v) in imaging dishes (70K cells/well) in 37° C., 5% CO2 incubator for two days until they are about 70% confluent. Appropriate amounts of peptides 7, 7a, 7b, 8a and 8b dissolved in autoclaved H2O were added to the cells to final concentrations of 5 μM. Peptide 9 was first dissolved in DMSO to make a 200 μM stock and then added to cells to a final concentration of 5 μM. The cells were incubated with the samples for 4 hours at 37° C. and 5% CO2. After incubation, cells were washed 3 times with DPBS and then fixed with 4% formaldehyde in DPBS for 10 minutes. They are then washed 3 times with HBSS and stained with 5 μg/mL wheat germ agglutinin-tetramethylrhodamine conjugate in HBSS for 20 minutes. The cells were subsequently washed with HBSS once and DPBS twice and stained with 5 μg/mL diamidino-2-phenylindole (DAPI) in DPBS for 30 minutes. They were washed 3 times with DPBS and covered in one drop of pri-Gold and cover slide. Images of peptide localization in cells were taken on PerkinElmer Ultraview Spinning Disk Confocal with 30% of its maximum laser power in 488 channel with 500 ms exposure time and 0.5 μm Z-stacking Image processing was done using Volocity software package (PerkinElmer).

[2] = Temperature-dependent melting from CD spectra at 222 nm; assay type: physicochemical; conditions: CD at 222 nm
Procedure: CD measurements were done with Aviv 202 spectrometer using 1 mm quartz cuvette. Peptide solutions were made by dissolving solid samples in 25% acetonitrile/water mixture, CD spectra of 3a and 3b were measured in acetonitrile, CD spectra of affibodies was collected in 10 mM phosphate buffer. Concentration of affibodies was estimated by UV absorbance measurements at 280 nm. Contribution of the perfluorinated staple in 6a on the absorbance value at 280 nm was taken into account (estimated molar extinction coefficient for [—S—C6F4—S-]˜5000 cm^−1M^−1 from UV measurements of solutions of 6 and 6a) in these measurements. Data processing included solvent background correction (subtraction) and adjustment for pathlength and concentration (MRE=[θ]λ=θobs×1/(10 lcn); θobs=measured ellipticity, θ=mean residual ellipticity in deg×cm^2×dmol^−1, 1=pathlength (cm); c=concentration of peptide (M); n=# of amino acids). α-helicities of the peptides were estimated using previously established methods.

Compound | remaining at 10 min [1] | cellular uptake (confocal microscopy) (HEK293T cells) | temperature dependent melting properties [2]
CC[C@H](C)[C@H](NC(=O)CCNC(=S)Nc1ccc(-c2c3ccc(=O)cc-3oc3cc(O)ccc23)c(C(=O)O)c1)C(=O)N[C@H](C(=O)N[C@@H](Cc1ccccc1)C(=O)N[C@@H](CSCC(N)=O)C(=O)N[C@@H](CC(=O)O)C(=O)N[C@@H](CC(C)C)C(=O)N[C@@H](CC(C)C)C(=O)N[C@@H](CSCC(N)=O)C(=O)N[C@@H](Cc1ccc(O)cc1)C(=O)N[C@@H](Cc1ccc(O)cc1)C(=O)NCC(=O)N[C@@H](CCCCN)C(=O)N[C@@H](CCCCN)C(=O)N[C@@H](CCCCN)C(N)=O)[C@@H](C)O [Peptide 7] | < 1% | no fluorescent positive cells | 
Affibody 10a: HER-2 affibody with perfluoroaryl staple at Cys42, Cys46 on the C-terminal helix |  |  | not compromised

From patent US9018172B2, “Modification of peptides via SNAr reactions of thiols with fluorinated aromatics” (Massachusetts Institute of Technology, priority 2012, dated 2015)
